Laboratory results published in US20020137929A1, “1 - (3-heterocyclylphenyl) isothiourea, -isourea, -guanidine and -amidine herbicidal agents” (Intellectual Property Department, BASF Aktiengesellschaft, priority 1998, published 2002).

Tests used:
SETVI (Foxtail, Green) = assay: Postemergence herbicidal evaluation; format: in vivo, Setaria viridis; details: postemergence
Summary of the method: (§1)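 Young plants, roughly two weeks from seeding, receive the active ingredient as a sprayed dispersion (acetone/water 50/50, 0.5% TWEEN 20) at 40 psi. Doses span about 0.0156 to 0.500 kg/ha. A visual score from 0 to 9 compares treated with control plants four to five weeks on.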

CYPIR (Rice Flatsedge) = assay: Postemergence weed control under flooded paddy conditions; format: in vivo, Cyperus iria; details: postemergence weeds, rated 3 to 4 weeks after treatment
Summary of the method: (§2)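 Weeds 3 to 5 cm tall and rice seedlings at the 1.5 to 2.5 leaf stage were flooded, with water held 1.5 to 3 cm above the soil. Compounds in 50/50 v/v aqueous/acetone went into the flood water at about 0.0313 to 0.500 kg/ha. Visual 0-9 ratings versus control were made 3 to 4 weeks later.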

CASOB (Sicklepod) = assay: Preemergence herbicidal evaluation; format: in vivo, Cassia obtusifolia; details: preemergence, rated 4-5 weeks after treatment, 0-9 scale
Summary of the method: (§3)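 Preemergence soil application of compound, sprayed in aqueous acetone at rates equivalent to about 0.0156 to 0.500 kg per hectare onto freshly sown cups. Plant response was judged by eye on a 0-9 scale four to five weeks later.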

ZEAMX (Corn, Field) = assay: Postemergence herbicidal evaluation; format: in vivo, Zea mays; details: postemergence
Summary of the method: as §1

[1] = tested on: IPOHE (Morningglory, Ivyleaf); assay: Preemergence herbicidal evaluation; format: in vivo, Ipomoea hederacea; details: preemergence, rated 4-5 weeks after treatment, 0-9 scale
Summary of the method: as §3

[2] = tested on: ECHORC (Watergrass (Calif.)); assay: Preemergence weed control under flooded paddy conditions; format: in vivo, Echinochloa oryzoides; details: rated 3-4 weeks after treatment
Summary of the method: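 Flooded-pot preemergence screen with silt loam and seeds in the upper 0.5 cm. Dose about 0.0313 to 0.500 kg/ha, delivered into flood water; visual 0-9 score after 3 to 4 weeks.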

[3] = tested on: GLXMAW (Soybean, Williams); assay: Postemergence herbicidal evaluation; format: in vivo, Glycine max, (L.) Merr. cv Williams; details: postemergence
Summary of the method: as §1

ECHCG (Barnyardgrass) = assay: Preemergence herbicidal evaluation; format: in vivo, Echinochloa crus-galli; details: preemergence, rated 4-5 weeks after treatment, 0-9 scale
Summary of the method: as §3

ABUTH (Velvetleaf) [4] = assay: Postemergence herbicidal evaluation; format: in vivo, Abutilon theophrasti; details: postemergence
Summary of the method: as §1

AMBEL (Ragweed, Common) = assay: Preemergence herbicidal evaluation; format: in vivo, Ambrosia artemisifolia; details: preemergence, rated 4-5 weeks after treatment, 0-9 scale
Summary of the method: as §3

ABUTH (Velvetleaf) [5] = assay: Preemergence herbicidal evaluation; format: in vivo, Abutilon theophrasti; details: preemergence, rated 4-5 weeks after treatment, 0-9 scale
Summary of the method: as §3

[6] = tested on: ECHORC (Watergrass (Calif.)); assay: Postemergence weed control under flooded paddy conditions; format: in vivo, Echinochloa oryzoides; details: postemergence weeds, rated 3 to 4 weeks after treatment
Summary of the method: as §2

[7] = tested on: IPOHE (Morningglory, Ivyleaf); assay: Postemergence herbicidal evaluation; format: in vivo, Ipomoea hederacea; details: postemergence
Summary of the method: as §1

CYPSE (Flatsedge) = assay: Preemergence weed control under flooded paddy conditions; format: in vivo, Cyperus serotinus; details: rated 3-4 weeks after treatment
Summary of the method: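 Seeds or propagules sown in silt loam kept flooded 1.5-3 cm; compounds in 50/50 acetone/water pipetted into flood water at about 0.0313 to 0.500 kg/ha. Greenhouse; visual 0-9 rating versus untreated control 3-4 weeks after treatment.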

CCOC(=O)CN1C(=O)C(CC(=O)NS(=O)(=O)c2ccccc2)SC1=Nc1cc(-n2c(=O)cc(C(F)(F)F)n(C)c2=O)c(F)cc1Cl (stereo not shown) [Compound 100, Ethyl 2-{{2-chloro-5-[3,6-dihydro-3-methyl-2,6-dioxo-4-(trifluoromethyl)-1(2H)-pyrimidinyl]-4-fluorophenyl}imino}-4-oxo-5-{[(phenylsulfonyl)-carbamoyl]methyl]-3-thiazolidineacetate] was tested, and the “herbicidal rating SETVI” value (SETVI (Foxtail, Green); rate 0.0156 kg/ha) was 2.0, the “herbicidal rating SETVI” value (SETVI (Foxtail, Green); rate 0.0313 kg/ha) was 9.0 and the “herbicidal rating SETVI” value (SETVI (Foxtail, Green); rate 0.0625 kg/ha) was 6.0. The “herbicidal rating SETVI” value (SETVI (Foxtail, Green); rate 0.1250 kg/ha) was 7.0, the “Herbicidal rating CYPIR” value (CYPIR (Rice Flatsedge); Rate 0.0313 kg/ha) was 0.0 and the “Herbicidal rating CYPIR” value (CYPIR (Rice Flatsedge); Rate 0.0625 kg/ha) was 0.0. For the same compound, the “Herbicidal rating CYPIR” value (CYPIR (Rice Flatsedge); Rate 0.1250 kg/ha) was 0.0, the “Herbicidal rating CYPIR” value (CYPIR (Rice Flatsedge); Rate 0.2500 kg/ha) was 4.0 and the “Herbicidal rating CYPIR” value (CYPIR (Rice Flatsedge); Rate 0.5000 kg/ha) was 9.0. The CASOB rating (CASOB (Sicklepod); 0.0313 kg/ha) was 0.0, the CASOB rating (CASOB (Sicklepod); 0.0625 kg/ha) was 0.0 and the CASOB rating (CASOB (Sicklepod); 0.1250 kg/ha) was 0.0. For the same compound, the CASOB rating (CASOB (Sicklepod); 0.2500 kg/ha) was 0.0, the CASOB rating (CASOB (Sicklepod); 0.5000 kg/ha) was 8.0 and the “herbicidal rating ZEAMX” value (ZEAMX (Corn, Field); rate 0.0156 kg/ha) was 4.5. The “herbicidal rating ZEAMX” value (ZEAMX (Corn, Field); rate 0.0313 kg/ha) was 5.0, the “herbicidal rating ZEAMX” value (ZEAMX (Corn, Field); rate 0.0625 kg/ha) was 5.0 and the “herbicidal rating ZEAMX” value (ZEAMX (Corn, Field); rate 0.1250 kg/ha) was 5.0. It also gave an IPOHE rating ([1]; 0.0313 kg/ha) of 1.0, an IPOHE rating ([1]; 0.0625 kg/ha) of 0.0 and an IPOHE rating ([1]; 0.1250 kg/ha) of 0.0. The IPOHE rating ([1]; 0.2500 kg/ha) was 2.0, the IPOHE rating ([1]; 0.5000 kg/ha) was 5.0 and the “ECHORC herbicidal effect rating” value ([2]; 0.0313 kg/ha) was 0.0. For the same compound, the “ECHORC herbicidal effect rating” value ([2]; 0.0625 kg/ha) was 0.0, the “ECHORC herbicidal effect rating” value ([2]; 0.1250 kg/ha) was 0.0 and the “ECHORC herbicidal effect rating” value ([2]; 0.2500 kg/ha) was 3.0. The “ECHORC herbicidal effect rating” value ([2]; 0.5000 kg/ha) was 4.0, the “herbicidal rating GLXMAW” value ([3]; rate 0.0156 kg/ha) was 5.5 and the “herbicidal rating GLXMAW” value ([3]; rate 0.0313 kg/ha) was 6.0. For the same compound, the “herbicidal rating GLXMAW” value ([3]; rate 0.0625 kg/ha) was 6.5, the “herbicidal rating GLXMAW” value ([3]; rate 0.1250 kg/ha) was 7.0 and the ECHCG rating (ECHCG (Barnyardgrass); 0.0313 kg/ha) was 0.0. For the same compound, the ECHCG rating (ECHCG (Barnyardgrass); 0.0625 kg/ha) was 0.0, the ECHCG rating (ECHCG (Barnyardgrass); 0.1250 kg/ha) was 0.0 and the ECHCG rating (ECHCG (Barnyardgrass); 0.2500 kg/ha) was 1.0. The ECHCG rating (ECHCG (Barnyardgrass); 0.5000 kg/ha) was 1.0, the “herbicidal rating ABUTH” value (ABUTH (Velvetleaf) [4]; rate 0.0156 kg/ha) was 9.0 and the “herbicidal rating ABUTH” value (ABUTH (Velvetleaf) [4]; rate 0.0313 kg/ha) was 9.0. For the same compound, the “herbicidal rating ABUTH” value (ABUTH (Velvetleaf) [4]; rate 0.0625 kg/ha) was 9.0, the “herbicidal rating ABUTH” value (ABUTH (Velvetleaf) [4]; rate 0.1250 kg/ha) was 9.0 and the AMBEL rating (AMBEL (Ragweed, Common); 0.0313 kg/ha) was 0.0. It also gave an AMBEL rating (AMBEL (Ragweed, Common); 0.0625 kg/ha) of 0.0, an AMBEL rating (AMBEL (Ragweed, Common); 0.1250 kg/ha) of 1.0 and an AMBEL rating (AMBEL (Ragweed, Common); 0.2500 kg/ha) of 1.0. It also gave an AMBEL rating (AMBEL (Ragweed, Common); 0.5000 kg/ha) of 7.0, an ABUTH rating (ABUTH (Velvetleaf) [5]; 0.0313 kg/ha) of 0.0 and an ABUTH rating (ABUTH (Velvetleaf) [5]; 0.0625 kg/ha) of 0.0. For the same compound, the ABUTH rating (ABUTH (Velvetleaf) [5]; 0.1250 kg/ha) was 2.0, the ABUTH rating (ABUTH (Velvetleaf) [5]; 0.2500 kg/ha) was 9.0 and the ABUTH rating (ABUTH (Velvetleaf) [5]; 0.5000 kg/ha) was 9.0. For the same compound, the “Herbicidal rating ECHORC” value ([6]; Rate 0.0313 kg/ha) was 0.0, the “Herbicidal rating ECHORC” value ([6]; Rate 0.0625 kg/ha) was 0.0 and the “Herbicidal rating ECHORC” value ([6]; Rate 0.1250 kg/ha) was 0.0. The “Herbicidal rating ECHORC” value ([6]; Rate 0.2500 kg/ha) was 3.0, the “Herbicidal rating ECHORC” value ([6]; Rate 0.5000 kg/ha) was 4.0 and the “herbicidal rating IPOHE” value ([7]; rate 0.0156 kg/ha) was 5.0. For the same compound, the “herbicidal rating IPOHE” value ([7]; rate 0.0313 kg/ha) was 9.0, the “herbicidal rating IPOHE” value ([7]; rate 0.0625 kg/ha) was 9.0 and the “herbicidal rating IPOHE” value ([7]; rate 0.1250 kg/ha) was 9.0. The “CYPSE herbicidal effect rating” value (CYPSE (Flatsedge); 0.0313 kg/ha) was 0.0, the “CYPSE herbicidal effect rating” value (CYPSE (Flatsedge); 0.0625 kg/ha) was 0.0 and the “CYPSE herbicidal effect rating” value (CYPSE (Flatsedge); 0.1250 kg/ha) was 0.0. The “CYPSE herbicidal effect rating” value (CYPSE (Flatsedge); 0.2500 kg/ha) was 0.0.
